The record followed here is patent US6541463B1, “Inhibitors of type 5 and type 3 17β-hydroxysteroid dehydrogenase and methods for their use” (Endorecherche, Inc., priority 1998, dated 2003).

Assay [1] deals with ZR-75-1 cells. The experiment in a line: Estrogenic activity: stimulation of proliferation of ZR-75-1 cells. Type of assay: cell-based, human. On the procedure: […] The manner in which the stimulation is determined is described in “Other Tests; C-Estrogenic/Antiestrogenic activity” Lower numbers are desirable. ND means that a determination was not done.
Estrogenic/antiestrogenic activity of some preferred compounds has been measured using the […] human breast cancer cell line as described in more detail below.
All media and medium supplments were purchased from Sigma. Cells were subcultured weekly by treatment with a pancreatic solution containing EDTA (0.2 g/L). The cell cultures used for the experiments herein describied were between passages 89 and 94.
Cells in their logarithmic growth phase were harvested, briefly centrifuged, and resuspended in RPMI 1640. Cells were then plated in triplicate in LIMBRO 24-well plastic culture plates (2 cm^2/well). Since plating density influences the effect of hormones on ZR-75-1 cell growth, cells were plated at a density of 1×10^4 cells/well. […] Control cultures received the ethanol vehicle only. Cells were then allowed to grow at 37° C. for 10 days with medium changes (of identical composition) every 2 days.
After E2 and/or antiestrogen treatment, cells were harvested by addition of 0.5 ml of a pancreatin solution (Sigma) for 5-10 min at 37° C. before addition of 0.5 mnl of RPMI 1640 containing 5% dextran coated […] bovine serum in order to block enzymatic action. Cell number (0.10 ml aliquot) was determined by measurement of DNA content as previously described (Simard et al., Endocrinology 126: 3223-3231,1990).

Assay [2] deals with T1, estrogen receptor (Rattus norvegicus, UniProt P06211).
T1 construct: from tissue; host or cells: uterine cytosol of gonadectomized female Sprague-Dawley rats
T1 sequence (P06211 1-600): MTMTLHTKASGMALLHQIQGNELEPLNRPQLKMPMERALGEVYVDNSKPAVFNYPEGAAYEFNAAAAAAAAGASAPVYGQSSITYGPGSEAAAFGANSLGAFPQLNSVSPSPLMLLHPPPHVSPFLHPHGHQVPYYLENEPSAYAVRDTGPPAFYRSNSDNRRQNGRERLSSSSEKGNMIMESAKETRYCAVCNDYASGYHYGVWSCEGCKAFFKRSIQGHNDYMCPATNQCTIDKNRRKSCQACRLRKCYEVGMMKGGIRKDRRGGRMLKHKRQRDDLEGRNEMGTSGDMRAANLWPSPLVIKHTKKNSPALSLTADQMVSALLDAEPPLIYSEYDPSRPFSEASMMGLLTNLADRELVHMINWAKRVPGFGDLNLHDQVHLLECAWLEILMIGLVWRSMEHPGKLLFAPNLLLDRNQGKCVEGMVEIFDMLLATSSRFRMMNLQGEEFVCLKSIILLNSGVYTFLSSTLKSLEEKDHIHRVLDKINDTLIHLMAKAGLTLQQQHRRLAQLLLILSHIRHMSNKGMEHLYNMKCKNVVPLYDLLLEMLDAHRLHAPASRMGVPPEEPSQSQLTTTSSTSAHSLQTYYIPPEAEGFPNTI
Kind of assay: Estrogen receptor (ER) assay: inhibition of [3H]E2 binding, uterine cytosol. On the procedure:
Female Sprague-Dawley rats (Crl: CD(SD)Br) weighing 200-300 g were obtained from Charles-River Inc. (St-Constant, Québec, Canada). The rats were gonadectomized under general anesthesia (Isoflurane) and killed by cervical dislocation 24 hours later. The uteri were rapidly removed, dissected free from adhering tissue and frozen on dry-ice. Uteri were kept at −80° C. until assay. All subsequent steps were performed at 0-4° C. Uteri were homogenized in 10 vol (wt/vol) of buffer A (25 mM Tris-HCI, 1.5 mM EDTA disodium salt, 10 mM α-monothioglycerol, 10% glycerol, and 10 mM sodium molybdate, pH 7.4), using a Polytron PT-10 homogenizer (Brinkman Instruments, Canada) at a setting of 5 for three periods of 10 sec, with intervals of 10 sec for cooling. The homogenate was then centrifuged at 105,000×g for 60 min in a Beckman L5-65 ultracentrifuge (Fullerton, Calif.). The protein concentration of the cytosol fraction was measured according to the method of Bradford (Anal. Biochem. 72: 248-254, 1976), using bovine serum albumin as standard.
Estrogen binding was measured using the dextran-coated charcoal adsorption technique as described previously (Asselin et al., Endocrinology, 101: 666-671, 1977; Asselin and Labrie, J. Steroid Biochem., 9: 1079-1082, 1978). Briefly, [^3H]E2 solubilized in ethanol were diluted into buffer A. Aliquots of uterine cytosol preparation (0.1 ml) were incubated with 5 nM [^3H]E2 (˜200,000 cpm, 0.1 ml) in the presence or absence of the indicated concentrations of unlabeled compounds (0.1 ml, prepared in buffer A containing 10% ethanol) for 3 h at room temperature. Unbound steroids were then separated by incubation for 15 min at 0-4° C. with 0.3 ml 0.5% Norit-A and 0.05% Dextran T-70 in buffer B (1.5 mM EDTA disodium salt, 10 mM monothioglycerol, and 10 mM Tris-HCI, pH 7.4) and centrifuged at 3,000×g for 15 min. Aliquots of the supernatant (0.3 ml) were removed for radioactivity measurement.

As to `CC1CCC2(CCC3C4CCc5cc(O)c([N+](=O)[O-])cc5C4CCC32C)OC1=O` [EM-1126, 2-Nitro-1,3,5(10)-estratrien-3-ol-17(R)-spiro-2′-(5′-methyl-6′-oxo)tetrahydropyran], in assay [1] (Table 4′), the “ZR-75-1 Activity, Basal E^−6” value is −89% and the “ZR-75-1 Activity, Basal E^−8” value came out at 0%. Besides, the “% Inhibition Estrogen Receptor E^−6” value in assay [2] (Table 4′, E^−6) came out at 0%. Besides, the “% Inhibition Estrogen Receptor E^−8” value in assay [2] (Table 4′, E^−8) is 1%.
On to `C[C@]12CCC3c4ccc(O)cc4CCC3C1CC[C@@]21CCCC(=O)O1` (stereo partly drawn) [EM-919, 1,3,5(10)-estratrien-3-ol-17(R)-spiro-2′(6′-oxo)tetrahydropyran], for which, in assay [1] (Table 4′), the “ZR-75-1 Activity, Basal E^−6” value was −20% and the “ZR-75-1 Activity, Basal E^−8” value stood at 0%. For the same molecule, the “% Inhibition Estrogen Receptor *E^−5” value in assay [2] (Table 4′, starred values, E^−5) is recorded as 90* %. Besides, the “% Inhibition Estrogen Receptor *E^−7” value in assay [2] (Table 4′, starred values, E^−7) is given as 07* %.
Take `COC(=O)CCCC(=O)O[C@]1(C(C)=O)CC[C@H]2[C@@H]3C=C(C)C4=CC(=O)CC[C@]4(C)[C@H]3CC[C@@]21C` [EM-1007, 6-Methyl-4,6-pregnadien-17α-ol-3,20-dione 4′-Carbomethoxybutyrate]: the “ZR-75-1 Activity, Basal” value in assay [1] (E^−6, in %) is recorded as 0; in assay [1] (E^−8, in %), −8. Also, the “% Inhibition Estrogen Receptor” value in assay [2] (E^−6) and in assay [2] (E^−8) was 0% each time.
Consider `CCS(=O)(=O)Oc1ccc2c(c1)CCC1C2CCC2(C)C1CCC21CCC(C)(C)C(=O)O1` (stereo not shown) [EM-1364-CS], for which, in assay [1] (Table 4′), the “ZR-75-1 Activity, Basal E^−6” value was “+36%” and the “ZR-75-1 Activity, Basal E^−8” value worked out at 0%. Also, in assay [2] (Table 4′, E^−6), the “% Inhibition Estrogen Receptor E^−6” value stood at 5%. Besides, the “% Inhibition Estrogen Receptor E^−8” value in assay [2] (Table 4′, E^−8) is reported as 0%.
Take `CC1(C)CCC2(CCC3C4CCc5cc(O)c([N+](=O)[O-])cc5C4CCC32C)OC1=O` (stereo not shown) [EM-1125-CS]: in assay [1] (Table 4′), the “ZR-75-1 Activity, Basal E^−6” value is 34% and the “ZR-75-1 Activity, Basal E^−8” value stood at 10%. The “% Inhibition Estrogen Receptor E^−6” value in assay [2] (Table 4′, E^−6) is 2%. In assay [2] (Table 4′, E^−8), the “% Inhibition Estrogen Receptor E^−8” value is 2%.
Turning to `C[C@]12CCC3c4cc([N+](=O)[O-])c(O)cc4CCC3C1CC[C@@]21CCCC(=O)O1` (stereo partly drawn) [EM-1124, 2-Nitro-1,3,5(10)-estraetriene-3-ol-17(R)-spiro-2′-(6′-oxo)tetrahydropyran], in assay [1] (Table 4′), the “ZR-75-1 Activity, Basal E^−6” value is reported as 12% and the “ZR-75-1 Activity, Basal E^−8” value worked out at 0%. For the same molecule, the “% Inhibition Estrogen Receptor E^−6” value in assay [2] (Table 4′, E^−6) stood at 0%. Further, the “% Inhibition Estrogen Receptor E^−8” value in assay [2] (Table 4′, E^−8) was determined as 0%.
For `C=CCC1CCC2(CCC3C4CCc5cc(O)ccc5C4CCC32C)OC1=O` [PB-132-152, 3-Hydroxy-1,3,5(10)-estratrien-17(R)-2′-(5′-allyl-6′-oxo)tetrahydropyran], in assay [1] (Table 4′), the “ZR-75-1 Activity, Basal E^−6” value was 90% and the “ZR-75-1 Activity, Basal E^−8” value came to 39%.
On to `COCCOc1cc2c(cc1C#N)C1CC[C@@]3(C)C(CC[C@@]34CCC(C)(C)C(=O)O4)C1CC2` (stereo partly shown) [EM-1396], for which, in assay [1] (Table 4′), the “ZR-75-1 Activity, Basal E^−6” value is 0% and the “ZR-75-1 Activity, Basal E^−8” value worked out at 0%. The “% Inhibition Estrogen Receptor E^−6” value in assay [2] (Table 4′, E^−6) amounted to 2%. In addition, in assay [2] (Table 4′, E^−8), the “% Inhibition Estrogen Receptor E^−8” value is given as 3%.
`CC1(C)CCC2(CCC3C4CCc5cc(OS(C)(=O)=O)ccc5C4CCC32C)OC1=O` (stereo not shown) [EM-1365-CS]: in assay [1] (Table 4′), the “ZR-75-1 Activity, Basal E^−6” value was determined as 0% and the “ZR-75-1 Activity, Basal E^−8” value is −17%. Also, the “% Inhibition Estrogen Receptor E^−6” value in assay [2] (Table 4′, E^−6) is 4%. For the same molecule, the “% Inhibition Estrogen Receptor E^−8” value in assay [2] (Table 4′, E^−8) is on record as 2%.
With `CC(=O)[C@@]1(OC(=O)CCCCF)CCC2C3C=C(C)C4=CC(=O)CC[C@]4(C)C3CC[C@@]21C` (stereo partly shown) [EM-1195-CS], the “ZR-75-1 Activity, Basal” value is recorded as 18 in assay [1] (E^−6, in %) and −11 in assay [1] (E^−8, in %). The “% Inhibition Estrogen Receptor” value in assay [2] (E^−6) and in assay [2] (E^−8) was 0% throughout.
With `CCC(=O)O[C@]1(C(C)=O)CCC2C3C=C(C)C4=CC(=O)C[C@H](C)[C@]4(C)C3CC[C@@]21C` (stereo partly shown) [CS-243], the “ZR-75-1 Activity, Basal” value in assay [1] (E^−6, in %) is 0; in assay [1] (E^−8, in %), 0. Besides, the “% Inhibition Estrogen Receptor” value came out at 0% in assay [2] (E^−6) and 1% in assay [2] (E^−8).
`COCCOc1cc2c(cc1C(=O)OC)C1CC[C@@]3(C)C(CC[C@@]34CCC(C)(C)C(=O)O4)C1CC2` (stereo partly drawn) [EM-1402-CS, 2-Carbomethoxy-3-(2″-methoxyethyloxy)-1,3,5(10)-estratrien 17(R)-spiro-2′-(5′,5′-dimethyl-6′-oxo)tetrahydropyran]: in assay [1] (Table 4′), the “ZR-75-1 Activity, Basal E^−6” value is on record as −10% and the “ZR-75-1 Activity, Basal E^−8” value came to 0%. For the same molecule, the “% Inhibition Estrogen Receptor E^−6” value in assay [2] (Table 4′, E^−6) is 0%. Besides, the “% Inhibition Estrogen Receptor E^−8” value in assay [2] (Table 4′, E^−8) was found to be 1%.
Regarding `COCCOc1cc2c(cc1Cl)C1CCC3(C)C(CCC34CCC(C)(C)C(=O)O4)C1CC2` (stereo not shown) [EM-1371-CS], in assay [1] (Table 4′), the “ZR-75-1 Activity, Basal E^−6” value is reported as “+137%” and the “ZR-75-1 Activity, Basal E^−8” value is given as 0%. Besides, in assay [2] (Table 4′, E^−6), the “% Inhibition Estrogen Receptor E^−6” value came out at 1%. The “% Inhibition Estrogen Receptor E^−8” value in assay [2] (Table 4′, E^−8) was found to be 2%.
Taken in the same sequence, the figures for `CC1(C)CCC2(CCC3C4CCc5ccccc5C4CCC32C)OC1=O` (stereo not shown) [CS-224] were 128%, 16%, 2% and 0%.
Taken in the same sequence, the figures for `COc1ccc2c(c1)CCC1C2CCC2(C)C1CCC21CCC(C)(C)C(=O)O1` (stereo not shown) [EM-1370] were “+24%”, 0%, 2% and 0%.
As to `CC(C)C[C@@H]1CC2C3C=CC4=CC(=O)CC[C@]4(C)C3CC[C@]2(C)C1=O` (stereo partly shown) [EM-1273-CS], in assay [1], the “ZR-75-1 Activity, Basal E^−6” value was 0 and the “ZR-75-1 Activity, Basal E^−8” value was 0. Moreover, the “% Inhibition Estrogen Receptor E^−6” value in assay [2] (E^−6) is reported as 0%. For the same molecule, the “% Inhibition Estrogen Receptor E^−8” value in assay [2] (E^−8) is listed as 0%.
On to `CCOc1ccc2c(c1)CCC1C2CC[C@@]2(C)C1CC[C@@]21CCC(C)(C)C(=O)O1` (stereo partly drawn) [EM-1369, 3-Ethoxy-1,3,5(10)-estratrien-17(R)-spiro-2′-(5′,5′-dimethyl-6′-oxo)-tetrahydropyran], for which, in assay [1] (Table 4′), the “ZR-75-1 Activity, Basal E^−6” value is on record as “+84%” and the “ZR-75-1 Activity, Basal E^−8” value was determined as 0%. Moreover, the “% Inhibition Estrogen Receptor E^−6” value in assay [2] (Table 4′, E^−6) stood at 0%. Also, the “% Inhibition Estrogen Receptor E^−8” value in assay [2] (Table 4′, E^−8) is given as 2%.
Consider `COC(=O)C1CCC2(CCC3C4CCc5cc(O)ccc5C4CCC32C)OC1=O` [PB-132-146, 3-Hydroxy-1,3,5(10)-estratrien-17(R)-2′-(5′-methoxycarbonyl-6′-oxo)tetrahydropyran], for which, in assay [1] (Table 4′), the “ZR-75-1 Activity, Basal E^−6” value is reported as 91% and the “ZR-75-1 Activity, Basal E^−8” value is listed as 0%.
On to `CC12CCC3c4ccc(O)cc4CCC3C1CCC21CC=CC(=O)O1` [PB-132-140, 3-hydroxy-1,3,5(10)-estratrien-17(R)-spiro-2′-(4′,5′-dihydro-6′-oxo)pyran], for which, in assay [1] (Table 4′), the “ZR-75-1 Activity, Basal E^−6” value was found to be 71% and the “ZR-75-1 Activity, Basal E^−8” value was 15%.
